From paper PMC12552937, “Kinetic mechanisms of electron bifurcation with electron transfer flavoprotein, NADH, butyryl-CoA dehydrogenase, and ferredoxin reveal a semiquinone cycle” (The Journal of Biological Chemistry, 2025)

Tests used:
[1] = biological target: T1, EtfAB (electron transfer flavoprotein) (Acidaminococcus fermentans, UniProt D2RIQ2); test: anaerobic stopped-flow, beta-FAD reduction and charge-transfer complex at […] nm; type: biochemical; details: 40 μM EtfAB + 40 μM NADH, 50 mM potassium phosphate pH 7.0, 4 °C; beta-FAD site
T1 construct: gene Acfer_0555; recombinant from E. coli, pET-11a, no tag told; heterodimer with alpha-FAD (EtfA) and beta-FAD (EtfB); with Electron transfer flavoprotein subunit alpha
T1 sequence (D2RIQ2 1-263): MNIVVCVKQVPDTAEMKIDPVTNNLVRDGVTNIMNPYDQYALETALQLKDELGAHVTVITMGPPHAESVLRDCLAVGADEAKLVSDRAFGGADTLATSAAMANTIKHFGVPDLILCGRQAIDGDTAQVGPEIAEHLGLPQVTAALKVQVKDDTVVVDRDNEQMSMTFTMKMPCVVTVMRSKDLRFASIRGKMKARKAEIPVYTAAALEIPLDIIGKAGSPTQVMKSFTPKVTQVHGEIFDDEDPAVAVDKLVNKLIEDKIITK
T1 sequence (D2RIQ3 1-340 partner): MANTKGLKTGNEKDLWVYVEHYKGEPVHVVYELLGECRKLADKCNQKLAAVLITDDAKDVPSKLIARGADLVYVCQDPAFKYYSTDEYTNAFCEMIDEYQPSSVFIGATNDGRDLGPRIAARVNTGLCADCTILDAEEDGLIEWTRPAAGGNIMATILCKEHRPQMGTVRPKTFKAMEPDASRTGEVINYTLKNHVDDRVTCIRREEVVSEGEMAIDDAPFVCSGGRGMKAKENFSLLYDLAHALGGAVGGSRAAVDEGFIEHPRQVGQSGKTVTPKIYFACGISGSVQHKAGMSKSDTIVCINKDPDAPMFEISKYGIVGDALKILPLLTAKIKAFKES

[2] = biological target: T2, Bcd (butyryl-CoA dehydrogenase) (Acidaminococcus fermentans, UniProt D2RL84); test: static titration, double-beam UV-visible difference absorbance at […] nm; type: binding
T2 construct: gene Acfer_1477; recombinant from E. coli, pET-11a, no tag told; homotetramer with one delta-FAD per subunit
T2 sequence (D2RL84 1-383): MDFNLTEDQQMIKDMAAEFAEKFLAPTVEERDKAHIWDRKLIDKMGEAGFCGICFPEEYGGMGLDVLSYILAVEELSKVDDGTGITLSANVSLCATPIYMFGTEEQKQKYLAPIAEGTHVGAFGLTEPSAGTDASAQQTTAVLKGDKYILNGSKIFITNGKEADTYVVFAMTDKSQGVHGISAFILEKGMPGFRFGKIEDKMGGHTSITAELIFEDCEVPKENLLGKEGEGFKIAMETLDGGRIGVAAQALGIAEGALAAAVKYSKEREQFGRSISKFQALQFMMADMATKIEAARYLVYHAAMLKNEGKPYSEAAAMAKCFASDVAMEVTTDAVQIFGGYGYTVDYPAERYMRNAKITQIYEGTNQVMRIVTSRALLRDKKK

Kd [2] [µM] | Compound | anaerobic stopped-flow, beta-FAD reduction and charge-transfer complex at 650 nm [1]
 | NC(=O)C1=CN([C@@H]2O[C@H](COP(=O)(O)OP(=O)(O)OC[C@H]3O[C@@H](n4cnc5c(N)ncnc54)[C@H](O)[C@@H]3O)[C@@H](O)[C@H]2O)C=CC1 [NADH] | mixing EtfAB with a stoichiometric amount NADH resulted in a rapid reduction of β-FAD
95 ± 6 | C/C=C/C(=O)SCCNC(=O)CCNC(=O)[C@H](O)C(C)(C)COP(=O)(O)OP(=O)(O)OC[C@H]1O[C@@H](n2cnc3c(N)ncnc32)[C@H](O)[C@@H]1OP(=O)(O)O [crotonyl-CoA] | 
